Values quoted from earlier work, collected in patent US20240373890A1, “SWEETENER AND FLAVORING COMPOSITIONS PREPARED BY GLYCOSYLATED MOGROSIDES OR MONK FRUIT EXTRACTS, METHOD OF MAKING AND METHOD OF USE THEREOF” (EPC NATURAL PRODUCTS CO., LTD., priority 2021, published 2024).
Residues, ends and D or L forms follow the SMILES beside them.

settings: depends on the tested concentration compared with sucrose

Molecule | Sweetness intensity compared with sucrose
O=S(=O)([O-])NC1CCCCC1.[Na+] [sodium cyclamate] | about 30 times
COC(=O)[C@H](Cc1ccccc1)NC(=O)[C@@H](N)CC(=O)O [Aspartame] (H-Asp-Phe-OMe) | 160-200 times
C[C@H](CC[C@@H](O[C@@H]1O[C@H](CO[C@@H]2O[C@H](CO)[C@@H](O)[C@H](O)[C@H]2O)[C@@H](O)[C@H](O)[C@H]1O[C@@H]1O[C@H](CO)[C@@H](O)[C@H](O)[C@H]1O)C(C)(C)O)[C@H]1CC[C@@]2(C)[C@@H]3CC=C4[C@@H](CC[C@H](O[C@@H]5O[C@H](CO[C@@H]6O[C@H](CO)[C@@H](O)[C@H](O)[C@H]6O)[C@@H](O)[C@H](O)[C@H]5O)C4(C)C)[C@]3(C)[C@H](O)C[C@]12C [mogroside V] | 250-300 times
OC[C@H]1O[C@H](O[C@]2(CCl)O[C@H](CCl)[C@@H](O)[C@@H]2O)[C@H](O)[C@@H](O)[C@H]1Cl [sucralose] | about 600 times
thaumatin | about 2000 times
